Results taken from US7595327B2, “Beta-sulfonamide hydroxamic acid inhibitors of tace/matrix metalloproteinase” (priority 2005, dated 2009).

Columns and labels:
Format in all cases: biochemical
recombinant human MMP-9 = molecular target: T1, recombinant human MMP-9 (Homo sapiens, UniProt P14780); test: In-vitro fluorescence assay of MMP-9 activity
T1 construct: purchased Calbiochem PF024
Method: The method was similar to that for the determination of MMP-1 activity, described above, with the following differences. Active, recombinant human MMP-7 was purchased from Calbiochem (catalog #444270; expressed in E. coli, 19 kDa). […] The concentration of the substrate stock was spectrophotometrically determined using the extinction coefficient at 410 nm of 7500 M^−1 cm^−1. The assay buffer (pH 7.4) consisted of 50 mM Hepes, 100 mM NaCl, 5 mM CaCI2, and 0.005% Brij-35. […] The plates were then incubated at room temperature for 30 minutes. The enzymatic reactions were initiated by adding substrate to a final concentration of 15 μM and were mixed by pipelting up and down. The final DMSO concentration in the assay was 10% and the final, total assay volume was 200 μl. […].
The method was essentially the same as for the determination of MMP-7 activity, described above, except that the source of enzyme in the assay was recombinant human MMP-9 (83 kDa) was purchased from Calbiochem (catalog #PF024), the final enzyme concentration was 0.5-1.0 nM, and the final substrate concentration was 20 μM.

[1] = molecular target: T2, TACE (catalytic domain of the recombinant TACE protein) (Homo sapiens, UniProt P78536); test: TACE FRET assay using TACE Cat; conditions: FRET, pro-TNF-α substrate peptide; read-out: TACE IC50
T2 construct: The catalytic domain of the recombinant TACE protein was expressed and purified; made in house
Method in brief: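 Recombinant TACE catalytic domain (1 ug/ml) pre-incubated 10 min at room temperature with inhibitor in 50 mM Tris-HCl pH 7.4, 25 mM NaCl, 4% glycerol, 0.005% Brij 35; Abz/Dpa pro-TNF-α peptide substrate added, fluorescence (Ex 320/Em 420) followed 10 min; IC50 from initial rates by Hill fit.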

MMP-13 = MMP-13 (Homo sapiens, UniProt P45452); test: In-vitro fluorescence assay of MMP-13 activity
Method: See Knight, C. […] […].
The method was essentially the same as for the determination of MMP-1 activity, described above, except that the final concentration of purified MMP in the assay was 0.5 nM, prepared by diluting with the assay buffer.

T2 sequence (P78536 223-474 limits assumed): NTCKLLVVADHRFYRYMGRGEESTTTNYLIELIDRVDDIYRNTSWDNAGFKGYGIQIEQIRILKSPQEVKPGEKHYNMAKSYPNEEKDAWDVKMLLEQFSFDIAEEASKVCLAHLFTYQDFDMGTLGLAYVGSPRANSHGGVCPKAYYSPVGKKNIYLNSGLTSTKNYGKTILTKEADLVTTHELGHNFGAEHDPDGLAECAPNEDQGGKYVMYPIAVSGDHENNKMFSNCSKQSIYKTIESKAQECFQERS
T1 sequence (P14780 107-707 limits assumed): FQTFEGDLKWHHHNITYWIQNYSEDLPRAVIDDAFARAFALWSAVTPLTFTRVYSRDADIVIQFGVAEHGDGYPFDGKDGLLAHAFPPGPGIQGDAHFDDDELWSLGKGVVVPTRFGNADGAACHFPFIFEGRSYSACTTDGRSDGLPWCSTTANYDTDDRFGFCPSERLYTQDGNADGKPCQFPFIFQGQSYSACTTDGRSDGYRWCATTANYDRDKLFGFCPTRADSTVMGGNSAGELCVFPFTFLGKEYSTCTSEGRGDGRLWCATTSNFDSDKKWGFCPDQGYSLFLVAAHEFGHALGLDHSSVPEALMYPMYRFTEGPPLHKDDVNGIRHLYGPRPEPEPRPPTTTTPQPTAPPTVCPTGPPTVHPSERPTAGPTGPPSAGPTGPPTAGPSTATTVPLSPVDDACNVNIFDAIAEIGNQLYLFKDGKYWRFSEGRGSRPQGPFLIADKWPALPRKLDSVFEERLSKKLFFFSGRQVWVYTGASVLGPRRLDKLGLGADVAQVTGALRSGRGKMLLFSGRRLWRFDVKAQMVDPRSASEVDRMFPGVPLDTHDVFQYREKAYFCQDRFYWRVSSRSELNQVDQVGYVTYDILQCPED

| Compound | IC50 (recombinant human MMP-9) [µM] | IC50 [1] [µM] | IC50 (MMP-13) [µM] |
| --- | --- | --- | --- |
| Cc1cc(COc2ccc(S(=O)(=O)N[C@@H]3CN(S(C)(=O)=O)C[C@@H]3C(=O)NO)cc2)c2ccccc2n1 (relative stereo) [Example 17, cis-N-Hydroxy-4-[({4-[(2-methylquinolin-4-yl)methoxy]phenyl}sulfonyl)amino]-1-(methylsulfonyl) pyrrolidine-3-carboxamide] | > 16.7 | 0.0006 | > 10 |
| Cc1cc(COc2ccc(S(=O)(=O)N[C@@H]3CN(C=O)C[C@@H]3C(=O)NO)cc2)c2ccccc2n1 (relative stereo) [Example 20, cis-1-Formyl-N-hydroxy-4-[({4-[(2-methylquinolin-4-yl)methoxy]phenyl}sulfonyl)amino]pyrrolidine-3-carboxamide] | > 16.7 | 0.0011 | 10.2 |
| CCNC(=O)N1C[C@H](C(=O)NO)[C@H](NS(=O)(=O)c2ccc(OCc3cc(C)nc4ccccc34)cc2)C1 (relative stereo) [Example 23, cis-1-Ethyl-N-hydroxy-4-[({4-[(2-methylquinolin-4-yl)methoxy]phenyl}sulfonyl)amino]pyrrolidine-1,3-dicarboxamide] | > 16.7 | 0.0013 | > 16.7 |
| Cc1cc(COc2ccc(S(=O)(=O)N[C@@H]3CN(C(=O)NC(C)(C)C)CC[C@@H]3C(=O)NO)cc2)c2ccccc2n1 [Example 35, 3-[4-(2-Methyl-quinolin4-ylmethoxy)-benzenesulfonylamino]-piperidine-1,4-dicarboxylic acid 1-tert-butylamide 4-hydroxyamide] | > 16.7 | 0.0014 | > 16.7 |

Further lines, results first:

| IC50 (recombinant human MMP-9) [µM] | IC50 [1] [µM] | IC50 (MMP-13) [µM] | Compound |
| --- | --- | --- | --- |
| > 16.7 | 0.0006 | > 16.7 | Cc1cc(COc2ccc(S(=O)(=O)N[C@H]3COC[C@H]3C(=O)NO)cc2)c2ccccc2n1 (stereo in doubt) [Example 26, (3S,4R)-4-[4-(2-Methyl-quinolin-4-ylmethoxy)-benzenesulfonylamino]-tetrahydro-furan-3-carboxylic acid hydroxyamide] |
| > 16.7 | < 0.0006 | > 10 | Cc1cc(COc2ccc(S(=O)(=O)N[C@@H]3CCC[C@@H]3C(=O)NO)cc2)c2ccccc2n1 [Example 13, (1S,2R)-N-Hydroxy-2-[({4-[(2-methylquinolin-4-yl)methoxy]phenyl}sulfonyl)amino]cyclopentanecarboxamide] |
